Test systems include 786-0 renal; HOP-62 NSCLC; NCI-H226 lung; NCI/ADR-RES ovarian; SK-OV-3 ovarian; K-562 leukemia; IGROV1 ovarian.
Common to all, as to assay: NCI-60 cell line screen, 48 h

Several values for one entry are separate records, joined by “and”; a condition that tells them apart may be missing. Equal entries are not always repeated.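 Cultured in 96-well plates, cells were exposed to test compound for 48 hours across five concentrations. TGI: total growth inhibition.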 Activity calls are given as the source filed them. Rule as the data show it: active = GI50 below about 0.43 µM; inactive = the rest.

Turning to `O=P(O)(O)CN1CCNCCN(CP(=O)(O)O)CCN(CP(=O)(O)O)CCNCC1`, the result in the experiment on 786-0 renal, in the experiment on HOP-62 NSCLC, with NCI-H226 lung, in the experiment on NCI/ADR-RES ovarian and in the experiment with SK-OV-3 ovarian was inactive.
`COc1cccc([C@@H]2CC(=O)c3cc4c(cc3N2)OCO4)c1`: the TGI with 786-0 renal, with HOP-62 NSCLC, in the experiment with K-562 leukemia, in the experiment with NCI-H226 lung, in the experiment with NCI/ADR-RES ovarian and in the experiment on SK-OV-3 ovarian was greater than 100 µM in each case.
With `CC1(C)CN=CC(C)(OCc2ccccc2)C(=O)NC(C)(C)CN=CC(C)(OCc2ccccc2)C(=O)N1` (stereo not drawn), the TGI in the experiment with 786-0 renal, in the experiment with HOP-62 NSCLC, in the experiment with IGROV1 ovarian, in the experiment with K-562 leukemia, in the experiment on NCI-H226 lung and with SK-OV-3 ovarian was greater than 10 µM in each case.
In the case of `Cn1c(COC(=O)NC2CCCCC2)c(COC(=O)NC2CCCCC2)c2ccc3cc(C=O)ccc3c21`, the TGI with 786-0 renal, with IGROV1 ovarian, in the experiment with K-562 leukemia, in the experiment with NCI-H226 lung, in the experiment with NCI/ADR-RES ovarian and in the experiment on SK-OV-3 ovarian was greater than 100 µM in each case.
On to `C[N+](C)(C)CC(=O)N/N=C(/Cc1nc2ccc([N+](=O)[O-])cc2[nH]c1=O)C(=O)Nc1cc(C(F)(F)F)ccc1Cl`, for which the TGI in the experiment with 786-0 renal, in the experiment with HOP-62 NSCLC, in the experiment on IGROV1 ovarian, with K-562 leukemia and in the experiment with SK-OV-3 ovarian was greater than 100 µM in each case.
On to `O=S1(=O)OCCCOS(=O)(=O)C1(Br)Br`, for which the TGI in the experiment on 786-0 renal, in the experiment with HOP-62 NSCLC, with NCI-H226 lung, in the experiment on NCI/ADR-RES ovarian and in the experiment on SK-OV-3 ovarian was greater than 100 µM in each case.
In the case of `O=C(CC(c1ccccc1)C(C(=O)c1ccncc1)C(CC(=O)c1ccncc1)c1ccccc1)c1ccncc1` (stereo not drawn), the TGI was greater than 100 µM in the experiment on 786-0 renal; greater than 100 µM with HOP-62 NSCLC; greater than 100 µM with IGROV1 ovarian; greater than 100 µM with NCI-H226 lung; greater than 100 µM with NCI/ADR-RES ovarian; 61.1 µM in the experiment with SK-OV-3 ovarian.
Consider `OCC1OC(c2ccccc2)CC1O` (stereo not drawn), for which the TGI in the experiment with 786-0 renal, with IGROV1 ovarian, in the experiment with K-562 leukemia, in the experiment with NCI-H226 lung, in the experiment with NCI/ADR-RES ovarian and in the experiment on SK-OV-3 ovarian was greater than 100 µM throughout.
With `COc1ccc(C2=NNC(c3cc4cc(Br)ccc4nc3Cl)C2)cc1` (stereo not drawn), the TGI with 786-0 renal is greater than 25 µM; in the experiment with IGROV1 ovarian, greater than 25 µM; in the experiment on K-562 leukemia, greater than 25 µM; with NCI-H226 lung, 11.8 µM.
On to `O=C(Nc1ccc(Sc2ccc(N=Nc3c(O)c(S(=O)(=O)O)cc4cc(S(=O)(=O)O)ccc34)cc2)cc1)c1ccc(N=Nc2c(O)c(S(=O)(=O)O)cc3cc(S(=O)(=O)O)ccc23)cc1`, for which the TGI with 786-0 renal, in the experiment with HOP-62 NSCLC, in the experiment on IGROV1 ovarian, in the experiment on K-562 leukemia, with NCI-H226 lung and in the experiment with SK-OV-3 ovarian was greater than 100 µM in each case.
On to `CO[C@]12CC(=O)C3(C(C[C@H]4CC5CC[C@H]6C[C@@H](OC(C)=O)CC[C@]6(OC(C)=O)C5C[C@@]43C)C1)C1C[C@H]3[C@@H]4CC[C@H]5C[C@@H](OC(C)=O)CC[C@]5(OC(C)=O)[C@H]4CC[C@]3(C)C12` (stereo partly drawn), for which the TGI in the experiment on 786-0 renal, with HOP-62 NSCLC, in the experiment with IGROV1 ovarian, in the experiment on K-562 leukemia, in the experiment with NCI/ADR-RES ovarian and in the experiment on SK-OV-3 ovarian was greater than 100 µM throughout.
Turning to `COc1cc2c(c(OC)c1OC)-c1ccc(SC)c(=O)cc1[C@@H](NC(=O)c1ccc([N+](=O)[O-])cc1)CC2`, the TGI was 15.6 µM and 30.7 µM in the experiment on 786-0 renal; 25 µM and > 100 µM in the experiment on IGROV1 ovarian; 25 µM and > 100 µM in the experiment on K-562 leukemia; 0.0575 µM in the experiment on SK-OV-3 ovarian.
Turning to `O=C(CSCC(=O)N/N=C\c1ccccc1F)N/N=C\c1ccccc1F`, the TGI in the experiment on 786-0 renal is greater than 100 µM; in the experiment with IGROV1 ovarian, greater than 100 µM; with NCI-H226 lung, greater than 100 µM; in the experiment with NCI/ADR-RES ovarian, 63.1 µM; with SK-OV-3 ovarian, greater than 100 µM.
Turning to `C=CCOCn1ccc(N)nc1=O`, the TGI with 786-0 renal, in the experiment on HOP-62 NSCLC, in the experiment with IGROV1 ovarian, in the experiment on K-562 leukemia, in the experiment on NCI-H226 lung and with SK-OV-3 ovarian was greater than 100 µM in each case.
On to `CC(=O)OCC1OC(n2c(N)c(C#N)c(-c3cccc(Cl)c3)c(C#N)c2=S)C(OC(C)=O)C(OC(C)=O)C1OC(C)=O` (stereo not drawn), for which the TGI was 60.5 µM with 786-0 renal; greater than 100 µM in the experiment with HOP-62 NSCLC; greater than 100 µM with IGROV1 ovarian; greater than 100 µM in the experiment with K-562 leukemia; 96.4 µM in the experiment with NCI/ADR-RES ovarian; 57.1 µM with SK-OV-3 ovarian.
As to `O=C(/C=C/c1ccccc1)Oc1cccc(Br)c1`, the TGI with 786-0 renal, in the experiment on HOP-62 NSCLC, in the experiment on IGROV1 ovarian, with NCI-H226 lung, in the experiment with NCI/ADR-RES ovarian and with SK-OV-3 ovarian was greater than 100 µM throughout.
Consider `COc1cc([C@@H]2c3cc4c(cc3[C@@H](c3c(O)cc(O)c5c3O[C@H](c3ccc(O)c(O)c3)[C@H](OC(=O)c3cc(O)c(O)c(O)c3)C5)[C@H]3COC(=O)[C@H]23)OCO4)cc(OC)c1O`, for which the TGI with 786-0 renal, with HOP-62 NSCLC, in the experiment on IGROV1 ovarian, in the experiment on NCI/ADR-RES ovarian and in the experiment with SK-OV-3 ovarian was greater than 100 µM in each case.
Consider `COc1cc(S(=O)(=O)Nc2ccc(-c3csc(N4C(=O)C(C)SC4c4ccccc4)n3)cc2)ccc1Cl` (stereo not drawn), for which the TGI in the experiment with 786-0 renal, in the experiment on IGROV1 ovarian, in the experiment with K-562 leukemia, with NCI-H226 lung and in the experiment with NCI/ADR-RES ovarian was greater than 100 µM in each case.
`Cn1cnc(SC2=C3C(=O)C=C4S[C@H]5C[C@]42c2c(c(O)c4c6c2=[N+]3CCC=6C=N4)N5)c1CC(N)C(=O)O` (stereo partly drawn): the TGI in the experiment with 786-0 renal was 59.7 µM; with IGROV1 ovarian it was 30.2 µM; in the experiment on K-562 leukemia it was 41.3 µM; in the experiment on NCI-H226 lung it was 36.5 µM; with SK-OV-3 ovarian it was 52.8 µM.

(Values after PubChem BioAssay (NCI).)
